Counter-ions that a name gives are not always drawn.
Target: T1, IRE1α (Homo sapiens, UniProt O75460, D688N)
T1 construct: containing the kinase and RNase domains (KR, AA G547-L977, D688N); made in house; host or cells: Sf9 insect cells
Experiment: IRE1α TR-FRET competition binding assay (HTRF)
Settings: His-tagged IRE1α kinase dead construct (KR, AA G547-L977, D688N); Alexa fluor 647-labeled ATP competitive probe 2 nM; read-out: IRE1α (alpha) HTRF (IC50)
Method: To determine the affinity of compound binding to the kinase domain of IRE1α, a time-resolved fluorescence resonance energy transfer (TR-FRET) competition assay was used.
A His-tagged IRE1α kinase dead construct containing the kinase and RNase domains (KR, AA G547-L977, D688N) was expressed in Sf9 insect cells. The purified protein (final concentration 0.25 nM) was pre-incubated with anti-His Europium labeled antibody (Life Technologies PV5596, final concentration 2 nM) for one hour at 4° C. in TR-FRET Assay Buffer (50 mM HEPES, pH 7.5, 10 mM MgCl2, 0.083 mM Brij 35, 1 mM DTT, and 0.1% bovine gamma globulin) prior to addition to test compounds. An Alexa fluor 647-labeled probe based on an ATP competitive inhibitor was added to a final concentration of 2 nM. Reactions were carried out for one hour at room temperature in a final volume of 20 μL in 384 well white ProxiPlates (Perkin Elmer 6008289). Binding of the probe to the IRE1α protein was detected in an Envision instrument (PerkinElmer) equipped with a TRF laser option and a LANCE/Delfia Dual/Bias D400/D630 mirror (Ex 347 nm, 1st Em 665 nm, 2nd Em 615 nm).

T1 sequence (O75460 547-977 D688N): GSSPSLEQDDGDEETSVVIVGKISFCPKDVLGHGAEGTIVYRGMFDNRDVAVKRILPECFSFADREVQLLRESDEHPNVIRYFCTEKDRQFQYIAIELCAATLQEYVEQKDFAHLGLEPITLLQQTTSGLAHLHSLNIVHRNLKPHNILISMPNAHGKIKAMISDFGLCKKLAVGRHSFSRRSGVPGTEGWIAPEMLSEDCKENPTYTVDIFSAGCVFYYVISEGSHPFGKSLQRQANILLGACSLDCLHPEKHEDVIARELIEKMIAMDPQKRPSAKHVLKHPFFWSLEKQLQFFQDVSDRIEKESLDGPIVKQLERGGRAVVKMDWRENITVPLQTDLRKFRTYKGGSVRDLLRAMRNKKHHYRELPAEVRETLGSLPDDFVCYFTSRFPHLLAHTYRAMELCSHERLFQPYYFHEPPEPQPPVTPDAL

| IC50 [nM] | Structure (SMILES) |
| --- | --- |
| 2.9 | CCC(F)(F)CS(=O)(=O)Nc1ccc(-c2ccc3nc(N[C@H]4CCCNC4)ncc3c2)c(F)c1F [Compound 1007, (S)—N-(2,3-Difluoro-4-(2-(piperidin-3-ylamino)quinazolin-6-yl)phenyl)-2,2-difluorobutane-1-sulfonamide] |
| 0.57 | O=S(=O)(Cc1ccccc1)Nc1ccc(-c2ccc3nc(N[C@H]4CCCNC4)ncc3c2)c(F)c1F [Compound 1001, (S)—N-(2,3-Difluoro-4-(2-(piperidin-3-ylamino)quinazolin-6-yl)phenyl)-1-phenylmethanesulfonamide] |
| 0.46 | CCc1cc(-c2ccc(NS(=O)(=O)Cc3ccccc3)cc2F)cc2cnc(N[C@@H]3CNC[C@@H](F)C3)nc12 [Compound 1016, N-(4-(8-Ethyl-2-(((3S,5S)-5-fluoropiperidin-3-yl)amino)quinazolin-6-yl)-3-fluorophenyl)-1-phenylmethanesulfonamide Formate] |
| 7.6 | O=S(=O)(CCC(F)(F)F)Nc1ccc(-c2ccc3nc(N[C@H]4CCCNC4)ncc3c2)c(F)c1F [Compound 1002, (S)—N-(2,3-Difluoro-4-(2-(piperidin-3-ylamino)quinazolin-6-yl)phenyl)-3,3,3-trifluoropropane-1-sulfonamide] |
| 0.18 | CCc1cc(-c2ccc(NS(=O)(=O)Cc3ccccc3)c(F)c2)cc2cnc(N[C@@H]3CNC[C@@H](F)C3)nc12 [Compound 1017, N-(4-(8-Ethyl-2-(((3S,5S)-5-fluoropiperidin-3-yl)amino)quinazolin-6-yl)-2-fluorophenyl)-1-phenylmethanesulfonamide] |
| 0.25 | CCc1cc(-c2ccc(NS(=O)(=O)CCC(F)(F)F)c(F)c2)cc2cnc(N[C@H]3CC[C@H](N(C)C)CC3)nc12 [Compound 1018, N-(4-(2-(((1,4-trans)-4-(Dimethylamino)cyclohexyl)amino)-8-ethylquinazolin-6-yl)-2-fluorophenyl)-3,3,3-trifluoropropane-1-sulfonamide] |
| 4.9 | Cc1cc(NS(=O)(=O)Cc2ccccc2)c(F)c(F)c1-c1ccc2nc(N[C@H]3CCCNC3)ncc2c1 [Compound 1009, (S)—N-(2,3-Difluoro-5-methyl-4-(2-(piperidin-3-ylamino)quinazolin-6-yl)phenyl)-1-phenylmethanesulfonamide] |
| 79 | O=S(=O)(Cc1ccccc1)Nc1ccc(F)c(-c2ccc3nc(N[C@H]4CCCNC4)ncc3c2)c1 [Compound 1005, (S)—N-(4-Fluoro-3-(2-(piperidin-3-ylamino)quinazolin-6-yl)phenyl)-1-phenylmethanesulfonamide] |
| 0.53 | O=S(=O)(Cc1ccccc1)Nc1c(F)cc(-c2ccc3nc(N[C@H]4CCCNC4)ncc3c2)cc1F [Compound 1011, (S)—N-(2,6-Difluoro-4-(2-(piperidin-3-ylamino)quinazolin-6-yl)phenyl)-1-phenylmethanesulfonamide] |
| 11 | O=S(=O)(Cc1ccccc1)Nc1ccc(-c2ccc3nc(N[C@H]4CCCNC4)ncc3c2)cc1F [Compound 1010, (S)—N-(2-Fluoro-4-(2-(piperidin-3-ylamino)quinazolin-6-yl)phenyl)-1-phenylmethanesulfonamide] |
| 30 | O=S(=O)(Cc1ccccc1)Nc1ccc(Cl)c(-c2ccc3nc(N[C@H]4CCCNC4)ncc3c2)c1F [Compound 1008, (S)—N-(4-Chloro-2-fluoro-3-(2-(piperidin-3-ylamino)quinazolin-6-yl)phenyl)-1-phenylmethanesulfonamide] |
| 3.1 | O=S(=O)(Cc1ccccc1)Nc1ccc(-c2cc3cnc(N[C@H]4CCCNC4)nc3cc2F)c(F)c1F [Compound 1015, (S)—N-(2,3-Difluoro-4-(7-fluoro-2-(piperidin-3-ylamino)quinazolin-6-yl)phenyl)-1-phenylmethanesulfonamide] |
| 100 | O=S(=O)(Cc1ccccc1)Nc1cccc(-c2ccc3nc(N[C@H]4CCCNC4)ncc3c2)c1F [Compound 1006, (S)—N-(2-Fluoro-3-(2-(piperidin-3-ylamino)quinazolin-6-yl)phenyl)-1-phenylmethanesulfonamide] |
| 0.65 | O=S(=O)(Cc1ccccc1)Nc1c(F)cc(-c2ccc3nc(N[C@H]4CCCNC4)ncc3c2)c(F)c1F [Compound 1003, (S)-1-Phenyl-N-(2,3,6-trifluoro-4-(2-(piperidin-3-ylamino)quinazolin-6-yl)phenyl)methanesulfonamide] |
| 150 | O=S(=O)(Cc1ccccc1)Nc1ccc(F)c(-c2ccc3nc(N[C@H]4CCCNC4)ncc3c2)c1F [Compound 1004, (S)—N-(2,4-Difluoro-3-(2-(piperidin-3-ylamino)quinazolin-6-yl)phenyl)-1-phenylmethanesulfonamide] |
| 15 | O=S(=O)(Cc1ccccc1)Nc1ccc(-c2ccc3nc(N[C@H]4CCCNC4)ncc3c2F)c(F)c1F [Compound 1012, (S)—N-(2,3-Difluoro-4-(5-fluoro-2-(piperidin-3-ylamino)quinazolin-6-yl)phenyl)-1-phenylmethanesulfonamide] |
| 0.51 | O=S(=O)(Cc1ccccc1)Nc1c(F)cc(-c2ccc3nc(N[C@@H]4CNC[C@@H](F)C4)ncc3c2)cc1F [Compound 1013, N-(2,6-Difluoro-4-(2-(((3S,5S)-5-fluoropiperidin-3-yl)amino)quinazolin-6-yl)phenyl)-1-phenylmethanesulfonamide] |
| 2.1 | O=S(=O)(Cc1ccccc1)Nc1cc(F)c(-c2ccc3nc(N[C@H]4CCCNC4)ncc3c2)c(F)c1F [Compound 1014, (S)-1-Phenyl-N-(2,3,5-trifluoro-4-(2-(piperidin-3-ylamino)quinazolin-6-yl)phenyl)methanesulfonamide hydrochloride] |
